Data reported in patent publication US8871756B2 (Hoffmann-La Roche Inc., priority 2011, dated 2014).
Structures can show the parent of a compound that is named as a salt.

System: RSV Long strain
Assay: Viral cytopathic effect (CPE) assay, anti-RSV activity
Assay type: cell-based, Respiratory Syncytial Virus
Conditions: RSV Long strain (ATCC); cell viability after 6 days, Cell Counting kit-8
How it was run: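 EC50 was derived from CCK-8 viability at 450/630 nm measured 6 days post-infection. Infection used enough RSV Long strain for approximately 80–90% cytopathic effect, in the presence of half-log serially diluted compound. Cells were plated the day before at 6×10^3 per well in DMEM/10% FBS.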

SMILES | EC50 [µM]
Cc1ccc2nc(N3CC[S+]([O-])c4ccccc4C3)cc(NCC3(N)COC3)c2c1 (single isomer, unassigned; (-)) [Example 18-3, (−)-N-[(3-Aminooxetan-3-yl)methyl]-6-methyl-2-[1-oxido-2,3-dihydro-1,4-benzothiazepin-4(5H)-yl]quinolin-4-amine] | 0.014
Cc1ccc2nc(N3CC[S+]([O-])c4ccccc4C3)nc(NCC3(CN)COC3)c2c1 (stereo not shown) [Example 62-1, N-{[3-(Aminomethyl)oxetan-3-yl]methyl}-6-methyl-2-(1-oxido-2,3-dihydro-1,4-benzothiazepin-4(5H)-yl)quinazolin-4-amine] | 0.0003
Cc1ccc2nc(N3CCS(=O)(=O)c4ccccc4C3)nc(NCCC(F)CN)c2c1 (stereo not shown) [Example 62-4, N^˜4^˜-[2-(1,1-Dioxido-2,3-dihydro-1,4-benzothiazepin-4(5H)-yl)-6-methylquinazolin-4-yl]-2-fluorobutane-1,4-diamine] | 0.019

Same assay, conditions: human respiratory syncytial virus, 144 h, RSV Long strain (ATCC); cell viability after 6 days, Cell Counting kit-8

SMILES | EC50 [µM]
CCc1ccc2nc(N3CCS(=O)(=O)c4ccccc4C3)cc(CCC(=O)O)c2c1 [Example 95, 3-[2-(1,1-Dioxido-2,3-dihydro-1,4-benzothiazepin-4(5H)-yl)-6-ethylquinolin-4-yl]propanoic acid] | 3.04
Cc1ccc2nc(N3CCS(=O)(=O)c4ccccc4C3)cc(NC(C)CN)c2c1 (stereo not shown) [Example 9-18, N^˜2^˜-[2-(1,1-Dioxido-2,3-dihydro-1,4-benzothiazepin-4(5H)-yl)-6-methylquinolin-4-yl]propane-1,2-diamine] | 0.01
CC(=O)Nc1nc(N2CCS(=O)(=O)c3ccccc3C2)nc2ccc(C)cc12 [Example 63-4, N-[2-(1,1-Dioxido-2,3-dihydro-1,4-benzothiazepin-4(5H)-yl)-6-methylquinazolin-4-yl]acetamide] | 0.797
Cc1ccc2nc(N3CCS(=O)(=O)c4ccc(O)cc4C3)cc(NCC3(N)COC3)c2c1 [Example 66, 4-(4-{[(3-Aminooxetan-3-yl)methyl]amino}-6-methylquinolin-2-yl)-2,3,4,5-tetrahydro-1,4-benzothiazepin-7-ol 1,1-dioxide] | 0.002
NCC1(CNc2nc(N3CC[S+]([O-])c4ccccc4C3)nc3ccc(C(=O)O)cc23)COC1 (stereo not shown) [Example 108-1, 4-({[3-(Aminomethyl)oxetan-3-yl]methyl}amino)-2-(1-oxido-2,3-dihydro-1,4-benzothiazepin-4(5H)-yl)quinazoline-6-carboxylic acid] | 0.488
Cc1ccc2nc(N3CCS(=O)(=O)c4ccccc4C3)cc(NC(=O)CO)c2c1 [Example 47-9, N-[2-(1,1-Dioxido-2,3-dihydro-1,4-benzothiazepin-4(5H)-yl)-6-methylquinolin-4-yl]-2-hydroxyacetamide] | 0.192
COc1ccc2c(c1)CN(c1cc(NCC3(N)COC3)c3ccccc3n1)CCS2(=O)=O [Example 1-7, N-[(3-Aminooxetan-3-yl)methyl]-2-(7-methoxy-1,1-dioxido-2,3-dihydro-1,4-benzothiazepin-4(5H)-yl)-quinolin-4-amine] | 0.022
NCCNc1cc(N2Cc3ccc(Br)cc3CCC2=O)nc2ccccc12 [Example 124, 2-{4-[(2-Aminoethyl)amino]quinolin-2-yl}-7-bromo-1,2,4,5-tetrahydro-3H-2-benz azepin-3-one] | 6.1
Cc1ccc2nc(N3CCS(=O)(=O)c4ccccc4C3)cc(NCC3CNCCO3)c2c1 (stereo not shown) [Example 21-1, 2-(1,1-Dioxido-2,3-dihydro-1,4-benzothiazepin-4(5H)-yl)-6-methyl-N-(morpholin-2-ylmethyl)quinolin-4-amine] | 0.023
CN(C)C(=O)c1ccc2c(c1)CCCN(c1cc(NCCN)c3cc(Cl)ccc3n1)C2 [Example 123, 2-{4-[(2-Aminoethyl)amino]-6-chloroquinolin-2-yl}-N,N-dimethyl-2,3,4,5-tetrahydro-1H-2-benzazepine-7-carboxamide] | 3.14
Cc1ccc2nc(N3CCC(F)(F)c4ccccc4C3)cc(NCCN)c2c1 [Example 111-6, N-[2-(5,5-Difluoro-1,3,4,5-tetrahydro-2H-2-benzazepin-2-yl)-6-methylquinolin-4-yl]ethane-1,2-diamine] | 0.062
Cc1ccc2nc(N3CC[S+]([O-])c4ccccc4C3)cc(N3CCC(N)C3)c2c1 (stereo not shown) [Example 19-4, 1-[6-Methyl-2-(1-oxido-2,3-dihydro-1,4-benzothiazepin-4(5H)-yl)quinolin-4-yl]pyrrolidin-3-amine] | 0.02
Cc1ccc2nc(N3CCS(=O)(=O)c4ccccc4C3)cc(NCCCCCCCN)c2c1 [Example 3-30, N-[2-(1,1-Dioxido-2,3-dihydro-1,4-benzothiazepin-4(5H)-yl)-6-methylquinolin-4-yl]heptane-1,7-diamine] | 7.81
Cc1ccc2nc(N3CCS(=O)(=O)c4cc(Oc5ccccc5)ccc4C3)cc(NCC3(N)COC3)c2c1 [Example 35, N-[(3-Aminooxetan-3-yl)methyl]-2-(1,1-dioxido-8-phenoxy-2,3-dihydro-1,4-benzothiazepin-4(5H)-yl)-6-methylquinolin-4-amine] | 2.79
NC1(CNc2cc(N3CCS(=O)(=O)c4ccccc4C3)nc3ccc(CO)cc23)COC1 [Example 3-23, [4-{[(3-Aminooxetan-3-yl)methyl]amino}-2-(1,1-dioxido-2,3-dihydro-1,4-benzothiazepin-4(5H)-yl)quinolin-6-yl]methanol] | 0.002
Cc1ccc2nc(N3CCS(=O)(=O)c4ccccc4C3)cc(NC(=O)Nc3ccccc3)c2c1 [Example 50-1, 1-[2-(1,1-Dioxido-2,3-dihydro-1,4-benzothiazepin-4(5H)-yl)-6-methylquinolin-4-yl]-3-phenylurea] | 0.931
Cc1ccc2nc(N3CCS(=O)(=O)c4ccccc4C3)cc(NCC3(CN)CSC3)c2c1 [Example 6-1, N-{[3-(Aminomethyl)thietan-3-yl]methyl}-2-(1,1-dioxido-2,3-dihydro-1,4-benzothiazepin-4(5H)-yl)-6-methylquinolin-4-amine] | 0.025
Cc1ccc2nc(N3CCS(=O)(=O)c4ccccc4C3)cc(NCCc3nn[nH]n3)c2c1 [Example 84, 2-(1,1-Dioxido-2,3-dihydro-1,4-benzothiazepin-4(5H)-yl)-6-methyl-N-[2-(1H-tetrazol-5-yl)ethyl]quinolin-4-amine] | 2.96
Cc1ccc2nc(N3CCS(=O)(=O)c4ccccc4C3)cc(NCC3(N)CCOCC3)c2c1 [Example 2-3, N-[(4-Aminotetrahydro-2H-pyran-4-yl)methyl]-2-(1,1-dioxido-2,3-dihydro-1,4-benzothiazepin-4(5H)-yl)-6-methylquinolin-4-amine] | 2.81
NCCNc1cc(N2CCS(=O)(=O)c3ccccc3C2)nc2ccc(F)cc12 [Example 9-9, N-[2-(1,1-Dioxido-2,3-dihydro-1,4-benzothiazepin-4(5H)-yl)-6-fluoroquinolin-4-yl]ethane-1,2-diamine] | 0.157
CNc1cc(N2CCS(=O)(=O)c3ccccc3C2)nc2ccc(C)cc12 [Example 3-33, 2-(1,1-Dioxido-2,3-dihydro-1,4-benzothiazepin-4(5H)-yl)-N,6-dimethylquinolin-4-amine trifluoroacetate] | 0.426
Cc1ccc2nc(N3CCC(F)(F)c4ccccc4C3)nc(NCC3(CN)COC3)c2c1 [Example 114-3, N-{[3-(Aminomethyl)oxetan-3-yl]methyl}-2-(5,5-difluoro-1,3,4,5-tetrahydro-2H-2-benzazepin-2-yl)-6-methylquinazolin-4-amine] | 0.004
